Reference: publication PMC7339578, “Multiple circulating alkaloids and saponins from intravenous Kang-Ai injection inhibit human cytochrome P450 and UDP-glucuronosyltransferase isozymes: potential drug–drug interactions” (Chinese Medicine, 2020)

Tests used:
[1] = Plasma pharmacokinetics in rats after a 30-min intravenous infusion of Kang-Ai injection; assay type: in vivo, Sprague–Dawley rats; settings: male, Sprague-Dawley, 30-min iv infusion of Kang-Ai injection 6 mL/kg
How it was run: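 Fasted male Sprague–Dawley rats (250 ± 20 g) got a single 30-min tail-vein infusion of Kang-Ai injection at 6 mL/kg. Jugular blood was sampled from 5 min to 12 h for plasma. Parameters came from non-compartmental analysis (trapezoidal AUC), n = 3.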

[2] = target: CYP3A4 (Homo sapiens, UniProt P08684); assay: Inhibition of recombinant CYP3A4 (probe nifedipine); assay type: in vitro ADME; settings: recombinant isozyme; mean ± SD of triplicate; unit not given (IC50 classes in μM); read-out: IC50 towards CYP3A4
Experimental: (§1) In this study, phenacetin (100 μM), coumarin (100 μM), bupropion (100 μM), paclitaxel (60 μM), tolbutamide (200 μM), mephenytoin (100 μM), chlorzoxazone (200 μM) and nifedipine (40 μM) have been used as the probe substrates for CYP1A2, 2A6, 2B6, 2C8, 2C9, 2C19, 2E1 and 3A4, respectively.

[3] = Biliary (hepatobiliary) excretion in rats after a 30-min infusion of Kang-Ai injection; assay type: in vivo, Sprague–Dawley rats; settings: rat bile 0–12 h; Kang-Ai injection 6 mL/kg iv
How it was run: (§2)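 Urine collected in metabolic cages at 0–4, 4–8, 8–12 h and bile at 0–3, 3–6, 6–9, 9–12 h after infusion start, weighed and frozen at −80 °C. Non-compartmental analysis; CLR and CLB as cumulative urinary or biliary amount divided by plasma AUC0-∞, fe-U and fe-B as cumulative amount/dose; mean ± SD (n = 3).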

[4] = Stability tests of analytes in rat plasma QC samples; assay type: in vitro ADME; settings: rat plasma
Experimental: […] The dilution integrity was investigated by analyzing six replicate samples with each analyte, and each analyte were diluted 10-fold with blank rat matrix. Furthermore, the diluted samples were analyzed using freshly prepared calibration curve to calculate RE and RSD, which should be no more than ± 15% as criterion.

[5] = target: T1, CYP2A6 (Homo sapiens, UniProt P11509); assay: Inhibition of recombinant CYP2A6 (probe coumarin); assay type: in vitro ADME; settings: recombinant isozyme; mean ± SD of triplicate; unit not given (IC50 classes in μM); read-out: IC50 towards CYP2A6
T1 sequence (P11509 1-494): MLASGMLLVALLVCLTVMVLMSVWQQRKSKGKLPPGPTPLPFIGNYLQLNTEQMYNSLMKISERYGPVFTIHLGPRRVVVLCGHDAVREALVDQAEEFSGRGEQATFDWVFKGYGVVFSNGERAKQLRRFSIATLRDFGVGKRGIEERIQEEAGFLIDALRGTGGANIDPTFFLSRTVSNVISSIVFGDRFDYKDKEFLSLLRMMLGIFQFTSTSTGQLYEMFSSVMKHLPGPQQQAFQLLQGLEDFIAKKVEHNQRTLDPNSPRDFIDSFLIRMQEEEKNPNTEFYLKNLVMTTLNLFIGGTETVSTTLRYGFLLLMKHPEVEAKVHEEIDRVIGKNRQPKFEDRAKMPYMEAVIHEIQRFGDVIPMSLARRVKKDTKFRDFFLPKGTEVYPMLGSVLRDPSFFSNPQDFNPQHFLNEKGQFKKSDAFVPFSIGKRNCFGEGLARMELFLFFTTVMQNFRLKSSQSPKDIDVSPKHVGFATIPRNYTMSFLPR
Experimental: as §1

[6] = Urinary (renal) excretion in rats after a 30-min infusion of Kang-Ai injection; assay type: in vivo, Sprague–Dawley rats; settings: Kang-Ai injection 6 mL/kg iv
How it was run: as §2

[7] = target: CYP2C9 (Homo sapiens, UniProt P11712); assay: Inhibition of recombinant CYP2C9 (probe tolbutamide); assay type: in vitro ADME; settings: recombinant isozyme; mean ± SD of triplicate; unit not given (IC50 classes in μM); read-out: IC50 towards CYP2C9
Experimental: as §1

Chain of CYP2C9 (P11712 whole entry): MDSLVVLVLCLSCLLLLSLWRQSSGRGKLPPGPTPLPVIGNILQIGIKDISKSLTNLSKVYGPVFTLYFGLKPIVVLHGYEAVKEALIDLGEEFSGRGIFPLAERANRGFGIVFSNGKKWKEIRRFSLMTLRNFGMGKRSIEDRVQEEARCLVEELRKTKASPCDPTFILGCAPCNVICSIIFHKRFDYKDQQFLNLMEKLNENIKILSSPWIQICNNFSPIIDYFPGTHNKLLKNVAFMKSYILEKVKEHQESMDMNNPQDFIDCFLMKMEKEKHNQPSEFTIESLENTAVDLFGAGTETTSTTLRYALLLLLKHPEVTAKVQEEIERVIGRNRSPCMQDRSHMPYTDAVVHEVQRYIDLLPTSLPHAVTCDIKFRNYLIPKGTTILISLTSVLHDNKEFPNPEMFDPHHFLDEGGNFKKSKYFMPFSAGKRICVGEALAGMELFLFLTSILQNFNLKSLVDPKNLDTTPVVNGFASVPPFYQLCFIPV
Chain of CYP3A4 (P08684 whole entry): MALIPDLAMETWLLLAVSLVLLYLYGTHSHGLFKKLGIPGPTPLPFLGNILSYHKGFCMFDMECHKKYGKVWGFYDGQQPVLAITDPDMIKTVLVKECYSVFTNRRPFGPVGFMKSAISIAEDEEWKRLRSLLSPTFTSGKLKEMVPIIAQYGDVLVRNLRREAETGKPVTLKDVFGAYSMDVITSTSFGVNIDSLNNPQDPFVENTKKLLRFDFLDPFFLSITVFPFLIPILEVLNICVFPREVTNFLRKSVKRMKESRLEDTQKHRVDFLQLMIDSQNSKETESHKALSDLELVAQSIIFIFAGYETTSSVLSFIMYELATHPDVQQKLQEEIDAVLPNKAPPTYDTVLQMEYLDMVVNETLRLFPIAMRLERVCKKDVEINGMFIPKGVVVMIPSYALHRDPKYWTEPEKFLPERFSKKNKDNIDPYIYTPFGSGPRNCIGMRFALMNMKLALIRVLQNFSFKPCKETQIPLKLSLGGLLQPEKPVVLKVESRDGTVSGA

## CC(C)=CCC[C@](C)(O[C@@H]1O[C@H](CO)[C@@H](O)[C@H](O)[C@H]1O)[C@H]1CC[C@]2(C)[C@@H]1[C@H](O)C[C@@H]1[C@@]3(C)CC[C@H](O)C(C)(C)[C@@H]3[C@@H](O[C@@H]3O[C@H](CO)[C@@H](O)[C@H](O)[C@H]3O)C[C@]12C [Compound C6, Ginsenoside Rg1]
[1]; plasma, rat, Table 1 unit, read-out: CLtot, p (converted)
  clearance: 2.61 mL/min
[1]; plasma, rat, Table 1 unit, read-out: VSS
  Vd: 0.144 ± 0.0642 L
[1]; rat plasma, read-out: Cmax
  Cmax: 1570 ± 175 nM
[1]; rat plasma, read-out: t1/2 (converted)
  half-life: 1.2 ± 1.23 h
[2]
  IC50: > 100 µM
[3]
  fe-B,0–12h (fraction of dose excreted into bile): 20.71 ± 3.62%
[4]; nominal conc. 40 nM
  At -80 °C for 48 h, Mean±SD: 37.29 ± 1.37 nM
  At -80 °C for 48 h, RE: -10.20%
  Extracted samples at 8 °C for 18 h, Mean±SD: 35.69 ± 0.56 nM
  Extracted samples at 8 °C for 18 h, RE: -12.18%
  Short-term stability at room temperature for 6 h, Mean±SD: 38.60 ± 1.14 nM
  Short-term stability at room temperature for 6 h, RE: -6.74%
  Three freeze-thaw cycles (-80 °C ↔ 23 °C), Mean±SD: 39.64 ± 2.41 nM
  Three freeze-thaw cycles (-80 °C ↔ 23 °C), RE: -7.72%
[4]; nominal conc. 200 nM
  At -80 °C for 48 h, Mean±SD: 209.85 ± 12.74 nM
  At -80 °C for 48 h, RE: 10.34%
  Extracted samples at 8 °C for 18 h, Mean±SD: 197.72 ± 17.37 nM
  Extracted samples at 8 °C for 18 h, RE: 8.81%
  Short-term stability at room temperature for 6 h, Mean±SD: 204.22 ± 5.64 nM
  Short-term stability at room temperature for 6 h, RE: 4.83%
  Three freeze-thaw cycles (-80 °C ↔ 23 °C), Mean±SD: 189.03 ± 9.20 nM
  Three freeze-thaw cycles (-80 °C ↔ 23 °C), RE: -10.01%
[4]; nominal conc. 800 nM
  At -80 °C for 48 h, Mean±SD: 800.01 ± 77.30 nM
  At -80 °C for 48 h, RE: 11.14%
  Extracted samples at 8 °C for 18 h, Mean±SD: 826.40 ± 51.24 nM
  Extracted samples at 8 °C for 18 h, RE: 10.42%
  Short-term stability at room temperature for 6 h, Mean±SD: 737.30 ± 34.89 nM
  Short-term stability at room temperature for 6 h, RE: -11.11%
  Three freeze-thaw cycles (-80 °C ↔ 23 °C), Mean±SD: 739.78 ± 39.17 nM
  Three freeze-thaw cycles (-80 °C ↔ 23 °C), RE: -11.08%
[5]
  IC50: > 100 µM
[6]; male, Sprague-Dawley, urine and plasma, rat, read-out: CLR (renal excretory clearance) (converted)
  CL renal: 1.04 mL/min
[6]; rat urine 0–12 h
  fe-U,0–12h (fraction of dose excreted into urine): 39.79 ± 5.88%
[6]; rat urine + bile, 0–12 h
  fraction of dose excreted unchanged via renal plus hepatobiliary excretion (sum of fe-U and fe-B): ~60%
[7]
  IC50: > 100 µM
